Key:
[1] = dynamic vapor adsorption (DVS) hygroscopicity; type: physicochemical; conditions: conventional storage environment 40%-80% RH; 25° C.
Procedure: “Dynamic vapor adsorption (DVS)” is an instrument for measuring the hygroscopicity of a sample. Its measurement method is known in the field. For example, an instrument from Surface Measurement Systems, Ltd. may be used to collect data of humidity ranging from 5% to 95% at 25 degrees Celsius. The weight deviation under each humidity is no more than ±0.02% within 10 min. The rebaudioside A Form 7 of the present invention has particular stability, which is conducive to storage. […] In a preferred embodiment, the DVS isotherm of the resulting rebaudioside A crystal form 7 is substantially identical to FIG. 4. DVS: All dynamic vapour adsorption (DVS) experimental data of the present invention are measured by a DVS Intrinsic dynamic vapour sorption instrument from SMS, UK. Measurement conditions: Temperature: 25° C.; Relative humidity range: 5%-95%.

[2] = large number of scientific experiments; cited from earlier work
[3] = storage stability at 25° C. RH 60% for 3 months (crystal form, HPLC purity); type: physicochemical; conditions: after standing for 3 months
Procedure: The maximum solubility of the sample obtained according to the above-mentioned examples is about 30 mg/mL, and the form remains unchanged when stored at 25° C. RH 60% for 3 months from the results of HPLC analysis (purity is detected by high performance liquid chromatography, and the liquid chromatographic column and liquid chromatography used are the same as those specified by JECFA in 2010).
Perparation of sample solution: Precisely 50-100 milligrams of rebaudioside A were weighed and placed in a 50 milliliter volumetric flask, and then a solution of water and acetonitrile in a ratio of 7:3 were added for dissolution to a scale of 50 milliliter. Detection step: 5 μl of a sample solution are injected under the following conditions. Chromatographic Column: A Capcell pak C18 MG II chromatographic column from the Shiseido company or a Luna 5μ C18(2) 100A chromatographic column from the Phenomenex company or a chromatographic column of equivalent specifications (length: 250 millimeters; inner diameter: 4.6 millimeters; packing particle size: 5 μm). Mobile Phase: a mixture of acetonitrile and a sodium phosphate buffer (specification: 10 mmol/L, pH value of 2.6) in a ratio of 32:68. […] Chromatographic Column temperature: detection patterns are recorded for about 30 minutes at 40° C. […]

Row | SMILES | hygroscopicity in DVS patterns [1] | toxicity and side effect [2] | purity change by HPLC compared to the starting material [3]
1 | C=C1C[C@@]23CC[C@H]4[C@@](C)(CCC[C@@]4(C)C(=O)O[C@@H]4O[C@H](CO)[C@@H](O)[C@H](O)[C@H]4O)[C@@H]2CC[C@]1(O[C@@H]1O[C@H](CO)[C@@H](O)[C@H](O[C@@H]2O[C@H](CO)[C@@H](O)[C@H](O)[C@H]2O)[C@H]1O[C@@H]1O[C@H](CO)[C@@H](O)[C@H](O)[C@H]1O)C3 [rebaudioside A Form 7, rebaudioside A] | little hygroscopicity |  | 
2 | C=C1C[C@@]23CC[C@H]4[C@@](C)(CCC[C@@]4(C)C(=O)O[C@@H]4O[C@H](CO)[C@@H](O)[C@H](O)[C@H]4O)[C@@H]2CC[C@]1(O[C@@H]1O[C@H](CO)[C@@H](O)[C@H](O[C@@H]2O[C@H](CO)[C@@H](O)[C@H](O)[C@H]2O)[C@H]1O[C@@H]1O[C@H](CO)[C@@H](O)[C@H](O)[C@H]1O)C3 [Rebaudioside A] |  | without any toxicity and side effect | less than 0.5%
